From patent US20050075275A1, “Regulation of the apj receptor for use in the treatment or prophylaxis of cardiac diseases” (Bayer Aktiengesellschaft, priority 2001, published 2005)

Test system: APJ Receptor
Test: In vivo investigations of the stimulation of the APJ receptor by apelin in anesthetized dogs (blood pressure, heart rate, coronary flow)
Description: Adult FBI (Foxhound-Beagle-Irish-Setter) dogs (20-30 kg) are initially anesthetized with thiopental Na (Trapanal, Byk-Gulden) 20-30 mg/kg i.v. Alcuronium chloride (Alloferin, Roche) 0.1 mg/kg is initially given i.v. for muscle relaxation. The animals are intubated and ventilated with a ⅓ O2/N2O mixture using an Engström respiratory pump with 15-18 breaths per min and a volume of 18-24 ml/kg. The ventilation is set accurately according to the arterial partial pressure of CO2, maintaining an average pCO2 of 35-45 mmHg. The maintenance anesthesia is done with isoflurane (Baxter) 1.5-3%. The body temperature is kept at 38° C.±0.1° C. The arterial blood pressure is measured via a catheder in the femoral artery. A thoracotomy is performed at the fifth intercostal space on the left side. The lung is retracted and fixed, and the pericardium is incised. A proximal section of the LAD (left coronary artery) distal to the first diagonal branch is exposed, and a calibrated electromagnetic flow probe (Gould Statham, model SP7515) is placed around the vessel and connected to a flowmeter (Statham, model SP-2202). A mechanical occluder is attached distal of the flow probe in such a way that no branches lie between flow probe and occluder.
Blood is taken and substances are administered through a catheder in the femoral vein. A peripheral ECG is recorded with subcutaneously fixed needles. A microtip pressure manometer (Millar model PC-350) is pushed through the left atrium in order to measure the left ventricular pressure. Measurement of the heart rate is controlled by the R wave of the ECG. The hemodynamic parameters and the coronary flow are recorded on a multichannel recorder throughout the experiment.
The experiment is started after a stabilization time of 1 hour. […] The heart rate, blood pressure and coronary flow are recorded and analyzed.

## apelin
10 μg/kg i.v. bolus
  coronary flow: significant increase in the coronary flow
Bolus and continuous infusion
  heart rate: without changing the heart rate
Bolus and infusion
  blood pressure: reduction in the blood pressure
Infusion 1, 3, 5, 10 μg/kg/min for 10 min
  coronary flow: dose-dependent increase in coronary flow
Infusion for 10 min
  infusion rate at which maximum increase in coronary flow is reached: 3 µg/kg/min
